Measurements published in ChEMBL document CHEMBL3091428, “Synthesis and initial biological evaluation of substituted 1-phenylamino-2-thio-4,5-dimethyl-1H-imidazole derivatives” (Bioorg Med Chem Lett, 2013).
Values after ≈ are worked out from the molar mass of the structure shown.

Assays:
Type in all cases: functional
Staphylococcus aureus = test: Antimicrobial activity against Staphylococcus aureus ATCC 25923 after 24 hrs by broth microdilution method; settings: ATCC 25923, 24 h
Pseudomonas aeruginosa = test: Antimicrobial activity against Pseudomonas aeruginosa ATCC 27853 after 24 hrs by broth microdilution method; settings: ATCC 27853, 24 h
Enterococcus faecalis [1] = test: Antimicrobial activity against Enterococcus faecalis ATCC 29212 after 24 hrs by broth microdilution method; settings: ATCC 29212, 24 h
Listeria monocytogenes = test: Antimicrobial activity against Listeria monocytogenes ATCC 19115 after 24 hrs by broth microdilution method; settings: ATCC 19115, 24 h
Enterococcus faecalis [2] = test: Antimicrobial activity against Enterococcus faecalis ATCC 51299 after 24 hrs by broth microdilution method; settings: ATCC 51299, 24 h
Escherichia coli [3] = test: Antimicrobial activity against Escherichia coli ATCC 25922 after 24 hrs by broth microdilution method; settings: ATCC 25922, 24 h
Nakaseomyces glabratus = test: Antimicrobial activity against Candida glabrata ATCC 90030 after 24 hrs by broth microdilution method; settings: ATCC 90030, 24 h
Pichia kudriavzevii = test: Antimicrobial activity against Candida krusei ATCC 6258 after 24 hrs by broth microdilution method; settings: ATCC 6258, 24 h
Candida albicans = test: Antimicrobial activity against Candida albicans ATCC 90028 after 24 hrs by broth microdilution method; settings: ATCC 90028, 24 h
Escherichia coli [4] = test: Antimicrobial activity against Escherichia coli ATCC 35218 after 24 hrs by broth microdilution method; settings: ATCC 35218, 24 h
Klebsiella pneumoniae = test: Antimicrobial activity against Klebsiella pneumoniae ATCC 13883 after 24 hrs by broth microdilution method; settings: ATCC 13883, 24 h

SMILES	MIC (Staphylococcus aureus)	MIC (Pseudomonas aeruginosa)	MIC (Enterococcus faecalis [1])	MIC (Listeria monocytogenes)	MIC (Enterococcus faecalis [2])	MIC (Escherichia coli [3])	MIC (Nakaseomyces glabratus)	MIC (Pichia kudriavzevii)	MIC (Candida albicans)	MIC (Escherichia coli [4])	MIC (Klebsiella pneumoniae)
COc1ccc(Nn2c(SCC(=O)c3ccc(Cl)cc3)nc(C)c2C)cc1	400 µg/mL (≈ 995 µM)	800 µg/mL (≈ 1990 µM)	400 µg/mL (≈ 995 µM)	400 µg/mL (≈ 995 µM)	800 µg/mL (≈ 1990 µM)	400 µg/mL (≈ 995 µM)	400 µg/mL (≈ 995 µM)	400 µg/mL (≈ 995 µM)	400 µg/mL (≈ 995 µM)	800 µg/mL (≈ 1990 µM)	400 µg/mL (≈ 995 µM)
COc1ccc(C(=O)CSc2nc(C)c(C)n2Nc2ccc(OO)cc2)cc1	800 µg/mL (≈ 2000 µM)	800 µg/mL (≈ 2000 µM)	800 µg/mL (≈ 2000 µM)	800 µg/mL (≈ 2000 µM)	800 µg/mL (≈ 2000 µM)	800 µg/mL (≈ 2000 µM)	800 µg/mL (≈ 2000 µM)	400 µg/mL (≈ 1000 µM)	400 µg/mL (≈ 1000 µM)	800 µg/mL (≈ 2000 µM)	800 µg/mL (≈ 2000 µM)
Cc1nc(SCC(=O)c2cccc(F)c2)n(Nc2ccc(Cl)cc2)c1C	800 µg/mL (≈ 2050 µM)	400 µg/mL (≈ 1030 µM)	100 µg/mL (≈ 256 µM)	200 µg/mL (≈ 513 µM)	800 µg/mL (≈ 2050 µM)	400 µg/mL (≈ 1030 µM)	400 µg/mL (≈ 1030 µM)	400 µg/mL (≈ 1030 µM)	400 µg/mL (≈ 1030 µM)	800 µg/mL (≈ 2050 µM)	800 µg/mL (≈ 2050 µM)
Cc1ccc(Nn2c(SCC(=O)c3ccccc3)nc(C)c2C)cc1	800 µg/mL (≈ 2280 µM)	800 µg/mL (≈ 2280 µM)	400 µg/mL (≈ 1140 µM)	800 µg/mL (≈ 2280 µM)	800 µg/mL (≈ 2280 µM)	800 µg/mL (≈ 2280 µM)	400 µg/mL (≈ 1140 µM)	400 µg/mL (≈ 1140 µM)	800 µg/mL (≈ 2280 µM)	200 µg/mL (≈ 569 µM)	400 µg/mL (≈ 1140 µM)
COc1ccc(Nn2c(SCC(=O)c3cccc(OC)c3)nc(C)c2C)cc1	800 µg/mL (≈ 2010 µM)	800 µg/mL (≈ 2010 µM)	800 µg/mL (≈ 2010 µM)	800 µg/mL (≈ 2010 µM)	200 µg/mL (≈ 503 µM)	800 µg/mL (≈ 2010 µM)	800 µg/mL (≈ 2010 µM)	800 µg/mL (≈ 2010 µM)	800 µg/mL (≈ 2010 µM)	800 µg/mL (≈ 2010 µM)	800 µg/mL (≈ 2010 µM)
O=C(N[C@H](CO)[C@H](O)c1ccc([N+](=O)[O-])cc1)C(Cl)Cl [CHLORAMPHENICOL]	50 µg/mL (≈ 155 µM)	50 µg/mL (≈ 155 µM)	12.5 µg/mL (≈ 38.7 µM)	50 µg/mL (≈ 155 µM)	100 µg/mL (≈ 309 µM)	50 µg/mL (≈ 155 µM)	–	–	–	25 µg/mL (≈ 77.4 µM)	50 µg/mL (≈ 155 µM)
Cc1ccc(Nn2c(SCC(=O)c3ccc(Cl)c(Cl)c3)nc(C)c2C)cc1	800 µg/mL (≈ 1900 µM)	800 µg/mL (≈ 1900 µM)	400 µg/mL (≈ 952 µM)	800 µg/mL (≈ 1900 µM)	400 µg/mL (≈ 952 µM)	400 µg/mL (≈ 952 µM)	800 µg/mL (≈ 1900 µM)	800 µg/mL (≈ 1900 µM)	800 µg/mL (≈ 1900 µM)	800 µg/mL (≈ 1900 µM)	800 µg/mL (≈ 1900 µM)
CC(=O)N1CCN(c2ccc(OCC3COC(Cn4ccnc4)(c4ccc(Cl)cc4Cl)O3)cc2)CC1 (stereo not drawn) [KETOCONAZOLE]	–	–	–	–	–	–	100 µg/mL (≈ 188 µM)	50 µg/mL (≈ 94.1 µM)	100 µg/mL (≈ 188 µM)	–	–

Now from value to compound:

MIC (Staphylococcus aureus)	MIC (Pseudomonas aeruginosa)	MIC (Enterococcus faecalis [1])	MIC (Listeria monocytogenes)	MIC (Enterococcus faecalis [2])	MIC (Escherichia coli [3])	MIC (Nakaseomyces glabratus)	MIC (Pichia kudriavzevii)	MIC (Candida albicans)	MIC (Escherichia coli [4])	MIC (Klebsiella pneumoniae)	SMILES
800 µg/mL (≈ 1830 µM)	400 µg/mL (≈ 917 µM)	400 µg/mL (≈ 917 µM)	800 µg/mL (≈ 1830 µM)	800 µg/mL (≈ 1830 µM)	400 µg/mL (≈ 917 µM)	800 µg/mL (≈ 1830 µM)	800 µg/mL (≈ 1830 µM)	800 µg/mL (≈ 1830 µM)	800 µg/mL (≈ 1830 µM)	800 µg/mL (≈ 1830 µM)	COc1ccc(Nn2c(SCC(=O)c3ccc(Cl)c(Cl)c3)nc(C)c2C)cc1
800 µg/mL (≈ 2150 µM)	400 µg/mL (≈ 1080 µM)	200 µg/mL (≈ 538 µM)	400 µg/mL (≈ 1080 µM)	800 µg/mL (≈ 2150 µM)	800 µg/mL (≈ 2150 µM)	800 µg/mL (≈ 2150 µM)	800 µg/mL (≈ 2150 µM)	800 µg/mL (≈ 2150 µM)	800 µg/mL (≈ 2150 µM)	800 µg/mL (≈ 2150 µM)	Cc1nc(SCC(=O)c2ccccc2)n(Nc2ccc(Cl)cc2)c1C
400 µg/mL (≈ 1080 µM)	400 µg/mL (≈ 1080 µM)	400 µg/mL (≈ 1080 µM)	400 µg/mL (≈ 1080 µM)	400 µg/mL (≈ 1080 µM)	400 µg/mL (≈ 1080 µM)	400 µg/mL (≈ 1080 µM)	200 µg/mL (≈ 538 µM)	800 µg/mL (≈ 2150 µM)	400 µg/mL (≈ 1080 µM)	800 µg/mL (≈ 2150 µM)	Cc1nc(SCC(=O)c2cccc(Cl)c2)n(Nc2ccccc2)c1C
800 µg/mL (≈ 2170 µM)	400 µg/mL (≈ 1080 µM)	200 µg/mL (≈ 541 µM)	400 µg/mL (≈ 1080 µM)	400 µg/mL (≈ 1080 µM)	800 µg/mL (≈ 2170 µM)	800 µg/mL (≈ 2170 µM)	400 µg/mL (≈ 1080 µM)	800 µg/mL (≈ 2170 µM)	800 µg/mL (≈ 2170 µM)	400 µg/mL (≈ 1080 µM)	Cc1ccc(Nn2c(SCC(=O)c3cccc(F)c3)nc(C)c2C)cc1
800 µg/mL (≈ 2070 µM)	800 µg/mL (≈ 2070 µM)	400 µg/mL (≈ 1040 µM)	800 µg/mL (≈ 2070 µM)	400 µg/mL (≈ 1040 µM)	400 µg/mL (≈ 1040 µM)	400 µg/mL (≈ 1040 µM)	200 µg/mL (≈ 518 µM)	400 µg/mL (≈ 1040 µM)	800 µg/mL (≈ 2070 µM)	800 µg/mL (≈ 2070 µM)	Cc1ccc(Nn2c(SCC(=O)c3ccc(Cl)cc3)nc(C)c2C)cc1
800 µg/mL (≈ 2100 µM)	800 µg/mL (≈ 2100 µM)	800 µg/mL (≈ 2100 µM)	400 µg/mL (≈ 1050 µM)	400 µg/mL (≈ 1050 µM)	800 µg/mL (≈ 2100 µM)	400 µg/mL (≈ 1050 µM)	200 µg/mL (≈ 524 µM)	400 µg/mL (≈ 1050 µM)	200 µg/mL (≈ 524 µM)	800 µg/mL (≈ 2100 µM)	COc1cccc(C(=O)CSc2nc(C)c(C)n2Nc2ccc(C)cc2)c1
